Results taken from ChEMBL document CHEMBL4699608, “Aliphatic amines are viable pro-drug moieties in phosphonoamidate drugs” (Bioorg Med Chem Lett, 2020).
The source made the active and inactive calls. The calls are words filed in the database; no cut-off is given here.

System: D-423MG
Assay: Cytotoxicity against human D423 cells with ENO1 deficient assessed as reduction in cell viability incubated for 5 days by crystal violet staining based spectrophotometry
Type: functional
Conditions: 120 h

Row | Structure (SMILES) | IC50 [nM]
1 | CC(C)(C)C(=O)OCOP(=O)(NC1CCC1)C1CCCN(O)C1=O (configuration not stated) | 121
2 | CC(C)(C)C(=O)OCOP(=O)(OCOC(=O)C(C)(C)C)C1CCCN(O)C1=O (configuration not stated) | 17.3
3 | CC(C)(C)C(=O)OCOP(=O)(NCc1ccccc1)C1CCCN(O)C1=O (configuration not stated) | 244
4 | CC(C)(C)C(=O)OCOP(=O)(NCC1CCCCC1)C1CCCN(O)C1=O (configuration not stated) | 81.1
5 | CC(C)(C)C(=O)OCOP(=O)(NCc1ccc(F)c(F)c1)C1CCCN(O)C1=O (configuration not stated) | 84.6
6 | CC(C)(C)C(=O)OCOP(=O)(NCc1cccc(F)c1)C1CCCN(O)C1=O (configuration not stated) | 103
7 | CCCCCCCCCCCCNP(=O)(O)C1CCCN(O)C1=O (configuration not stated) | 24
8 | CNP(=O)(OCOC(=O)C(C)(C)C)C1CCCN(O)C1=O (configuration not stated) | 115
9 | CC(C)(C)C(=O)OCOP(=O)(NCc1ccc(F)cc1F)C1CCCN(O)C1=O (configuration not stated) | 80.3
10 | CC(C)(C)C(=O)OCOP(=O)(NCc1ccc(F)cc1)C1CCCN(O)C1=O (configuration not stated) | 129
11 | CC(C)OC(=O)C(C)NP(=O)(OCOC(=O)C(C)(C)C)C1CCCN(O)C1=O (configuration not stated) | 258
12 | O=C1C(P(=O)(O)NCC2CC2)CCCN1O (configuration not stated) | 8830
13 | CC(C)(C)C(=O)OCOP(=O)(NCc1ccccc1F)C1CCCN(O)C1=O (configuration not stated) | 196
14 | CC(C)(C)C(=O)OCOP(N)(=O)C1CCCN(O)C1=O (configuration not stated) | 62.6

System: D-423MG
Assay: Cytotoxicity against human D423 cells with HINT1 deficient
Type: functional, cell-based
Conditions: not given

Row | Structure (SMILES) | Activity
15 | CC(C)(C)C(=O)OCOP(=O)(NCC1CC1)C1CCCN(O)C1=O (configuration not stated) | Active

System: D-423MG
Assay: Cytotoxicity against human D423 cells with PAPSS1 deficient
Type: functional, cell-based
Conditions: not given

Row | Structure (SMILES) | Activity
16 | CC(C)(C)C(=O)OCOP(=O)(NCC1CC1)C1CCCN(O)C1=O (configuration not stated) | Active

System: D-423MG
Assay: Cytotoxicity against human D423 cells with CES2 deficient
Type: functional, cell-based
Conditions: not given

Row | Structure (SMILES) | Activity
17 | CC(C)(C)C(=O)OCOP(=O)(NCC1CC1)C1CCCN(O)C1=O (configuration not stated) | Active
